Legend:
Format in all cases: in vivo
[1] = system: Setaria faberi; assay: Pre-emergence herbicidal activity, glasshouse pot test; conditions: pre-emergence spray, rate 1000 g/ha, evaluated after 13 days, scale 0-5
Method: (§1) Seeds of a variety of test species were sown in standard soil in pots. After cultivation for one day (pre-emergence) under controlled conditions in a glasshouse (at 24/16° C., day/night; 14 hours light; 65% humidity), the plants were sprayed with an aqueous spray solution derived from the formulation of the technical active ingredient in acetone/water (50:50) solution containing 0.5% Tween 20 (polyoxyethelyene sorbitan monolaurate, CAS RN 9005-64-5). The test plants were then grown in a glasshouse under controlled conditions (at 24/16° C., day/night; 14 hours light; 65% humidity) and watered twice daily. After 13 days, the test was evaluated (5=total damage to plant; 0=no damage to plant).
(§2) ABUTH=Abutilon theophrasti; SOLNI=Solanum nigrum; AMARE=Amaranthus retroflexus; SETFA=Setaria faberi; ALOMY=Alopecurus myosuroides; ECHCG=Echinochloa crus-galli, ZEAMX=zea mays.

[2] = system: Echinochloa crus-galli; assay: as above; conditions: pre-emergence spray, rate 1000 g/ha, evaluated after 13 days, scale 0-5
Method: as §1, §2

[3] = system: Alopecurus myosuroides; assay: as above; conditions: pre-emergence spray, rate 1000 g/ha, evaluated after 13 days, scale 0-5
Method: as §1, §2

[4] = system: zea mays; assay: as above; conditions: pre-emergence spray, rate 1000 g/ha, evaluated after 13 days, scale 0-5
Method: as §1, §2

[5] = system: Abutilon theophrasti; assay: as above; conditions: pre-emergence spray, rate 1000 g/ha, evaluated after 13 days, scale 0-5
Method: as §1, §2

[6] = system: Amaranthus retroflexus; assay: as above; conditions: pre-emergence spray, rate 1000 g/ha, evaluated after 13 days, scale 0-5
Method: as §1, §2

[7] = system: Amaranthus retroflexus; assay: Post-emergence herbicidal activity, glasshouse pot test; design: key: 0 = no damage to plant, 5 = total damage to plant; conditions: Application post-emergence, rate 1000 g/ha, evaluated after 13 days
Method: (§3) Seeds of a variety of test species were sown in standard soil in pots. After 8 days cultivation (post-emergence) under controlled conditions in a glasshouse (at 24/16° C., day/night; 14 hours light; 65% humidity), the plants were sprayed with an aqueous spray solution derived from the formulation of the technical active ingredient in acetone/water (50:50) solution containing 0.5% Tween 20 (polyoxyethelyene sorbitan monolaurate, CAS RN 9005-64-5). The test plants were then grown in a glasshouse under controlled conditions (at 24/16° C., day/night; 14 hours light; 65% humidity) and watered twice daily. After 13 days, the test was evaluated (5=total damage to plant; 0=no damage to plant).
as §2

[8] = system: Setaria faberi; assay: as above; design: key: 0 = no damage to plant, 5 = total damage to plant; conditions: Application post-emergence, rate 1000 g/ha, evaluated after 13 days
Method: as §3, §2

[9] = system: Echinochloa crus-galli; assay: as above; design: key: 0 = no damage to plant, 5 = total damage to plant; conditions: Application post-emergence, rate 1000 g/ha, evaluated after 13 days
Method: as §3, §2

[10] = system: Alopecurus myosuroides; assay: as above; design: key: 0 = no damage to plant, 5 = total damage to plant; conditions: Application post-emergence, rate 1000 g/ha, evaluated after 13 days
Method: as §3, §2

[11] = system: zea mays; assay: as above; design: key: 0 = no damage to plant, 5 = total damage to plant; conditions: Application post-emergence, rate 1000 g/ha, evaluated after 13 days
Method: as §3, §2

[12] = system: Abutilon theophrasti; assay: as above; design: key: 0 = no damage to plant, 5 = total damage to plant; conditions: Application post-emergence, rate 1000 g/ha, evaluated after 13 days
Method: as §3, §2

| Compound | SETFA damage score, application pre-emergence [1] | ECHCG damage score, application pre-emergence [2] | ALOMY damage score, application pre-emergence [3] | ZEAMX damage score, application pre-emergence [4] | ABUTH damage score, application pre-emergence [5] | AMARE damage score, application pre-emergence [6] | AMARE herbicidal damage score [7] | SETFA herbicidal damage score [8] | ECHCG herbicidal damage score [9] | ALOMY herbicidal damage score [10] | ZEAMX herbicidal damage score [11] | ABUTH herbicidal damage score [12] |
| --- | --- | --- | --- | --- | --- | --- | --- | --- | --- | --- | --- | --- |
| 1-(6-chloropyrimidin-4-yl)-2-hydroxy-4-methoxy-3-methyl-2H-pyrrol-5-one [CI2] | 4 | 4 | 2 | 1 | 1 |  |  |  |  |  |  |  |
| 4-chloro-2-hydroxy-1-[5-iodo-4-(trifluoromethyl)-2-pyridyl]-3-methyl-2H-pyrrol-5-one [AF76] | 5 | 4 | 3 | 1 | 4 | 5 | 5 | 5 | 5 | 5 | 1 | 5 |
| 4-chloro-2-hydroxy-3-methyl-1-[4-(trifluoromethyl)-5-vinyl-2-pyridyl]-2H-pyrrol-5-one [AF18] | 4 | 5 | 4 | 2 | 5 | 5 | 5 | 5 | 5 | 5 | 2 | 5 |
| CC1=C(Cl)C(=O)N(c2cc(C(F)(F)F)c(Br)cn2)C1O (centres unmarked) [AF57, 1-[5-bromo-4-(trifluoromethyl)-2-pyridyl]-4-chloro-2-hydroxy-3-methyl-2H-pyrrol-5-one] | 0 | 0 | 3 | 0 | 1 |  | 5 | 5 | 5 | 5 | 3 | 5 |
| CC1=C(Cl)C(=O)N(c2cc(C(F)(F)F)c(-c3ccc(Cl)cc3)cn2)C1O (centres unmarked) [AF90] | 3 | 0 |  | 0 | 0 | 2 | 5 | 5 |  |  |  | 4 |
| COC1=C(C)C(O)N(c2cc(Cl)c(C(=O)NC(C)(C)C)cn2)C1=O (centres unmarked) [AI18] | 5 | 5 | 4 |  |  | 5 | 5 | 5 | 5 | 5 | 4 | 5 |
| COC(=O)c1cnc(N2C(=O)C(OC)=C(C)C2O)cc1Cl (centres unmarked) [AI21] | 0 | 0 | 0 |  |  | 5 | 5 | 4 | 3 | 1 | 1 | 5 |
| COC1=C(C)C(O)N(c2cc(C(C)C)c(C(=O)NC(C)(C)C)cn2)C1=O (centres unmarked) [AI30] |  |  |  |  | 5 | 5 | 5 | 5 | 5 |  |  | 5 |
| COC1=C(C)C(O)N(c2cc(C)c(C(=O)NC(C)(C)C)cn2)C1=O (centres unmarked) [AI33] | 5 | 4 | 4 |  |  | 5 | 5 | 5 | 5 | 5 | 4 | 5 |
| CC1=C(Cl)C(=O)N(c2cc(C(C)C)c(Cl)nn2)C1O (centres unmarked) [BF15] | 5 | 5 | 4 | 2 | 4 | 3 | 5 |  |  | 5 | 3 | 5 |
| COC1=C(C)C(O)N(c2cc(C(C)C)c(Cl)nn2)C1=O (centres unmarked) [BI28] | 5 | 5 | 4 | 3 | 4 | 4 | 5 |  |  | 5 | 3 | 5 |
| COC1=C(C)C(O)N(c2cc(C(C)(C)C)c(Cl)nn2)C1=O (centres unmarked) [BI32] | 5 | 5 | 4 | 4 | 4 | 3 | 5 |  |  | 5 | 4 | 5 |
| CC1=C(Cl)C(=O)N(c2cc(Cl)ncn2)C1O (centres unmarked) [CF1] | 0 | 4 | 3 | 2 | 1 | 5 |  | 1 | 4 | 4 | 1 | 0 |
| COC1=C(C)C(O)N(c2cc(C(C)(C)C)ncn2)C1=O (centres unmarked) [CI1] | 5 | 4 | 4 | 4 | 5 | 5 |  |  |  |  |  |  |
| COC1=C(C)C(O)N(c2cc(NC(C)C)ncn2)C1=O (centres unmarked) [CI4, N2-hydroxy-1-[6-(isopropylamino)pyrimidin-4-yl]-4-methoxy-3-methyl-2H-pyrrol-5-one] | 0 | 0 | 0 | 0 | 0 | 0 |  |  |  |  |  |  |
| COC1=C(C)C(O)N(c2cc(C(C)(C)C#N)ncn2)C1=O (centres unmarked) [CI6] | 5 | 5 | 3 | 3 | 5 | 5 |  |  |  |  |  |  |
| COC1=C(C)C(O)N(c2cc(C(C)(C)F)ncn2)C1=O (centres unmarked) [CI7] | 5 | 4 | 3 | 1 | 5 | 5 |  |  |  |  |  |  |
| COC1=C(C)C(O)N(c2cc(C(C)(F)F)ncn2)C1=O (centres unmarked) [CI8] | 5 | 4 | 3 | 2 | 5 | 5 |  |  |  |  |  |  |
| COC1=C(C)C(O)N(c2cc(N(C)C)ncn2)C1=O (centres unmarked) [CI9] | 1 | 1 | 1 | 0 | 2 | 3 |  |  |  |  |  |  |

Reference: patent publication US9963445B2, “Chemical compounds” (SYNGENTA PARTICIPATIONS AG, priority 2013, dated 2018)
